Converted amounts (≈) assume the structure as drawn.

The subject of data set [1] is Mycobacterium bovis BCG str. ATCC 35743. Briefly: Antitubercular activity against dormant Mycobacterium bovis BCG ATCC 35743 at 3 ug/ml incubated for 40 mins by XTT Reduction Menadione Assay. Type of data set: functional.
The test system of the next data set is Fusarium oxysporum. Kind of data set: Antifungal activity against Fusarium oxysporum NCIM 1332 after 48 hrs by agar cup plate method. The data set is classed as functional. The note with it: NCIM 1332, 48 h.
For data set [2], the system named is Mycobacterium tuberculosis. Briefly: Antitubercular activity against Mycobacterium tuberculosis H37Ra ATCC 25177 at 10 ug/ml incubated for 40 mins by XTT Reduction Menadione Assay. The note with it: H37Ra ATCC 25177, 40 min, read-out: GI. The data set is classed as functional.
For data set [3], the system named is Mycobacterium tuberculosis. Kind of data set: Antitubercular activity against Mycobacterium tuberculosis H37Ra ATCC 25177 at 30 ug/ml incubated for 40 mins by XTT Reduction Menadione Assay. Type of data set: functional. As to conditions: H37Ra ATCC 25177, 40 min, read-out: GI.
For a further data set, the system named is Aspergillus flavus. Briefly: Antifungal activity against Aspergillus flavus NCIM 539 after 48 hrs by agar cup plate method. The data set is classed as functional. As to conditions: NCIM 539, 48 h.
The subject of data set [4] is Mycobacterium tuberculosis. Briefly: Antitubercular activity against Mycobacterium tuberculosis H37Ra ATCC 25177 at 3 ug/ml incubated for 40 mins by XTT Reduction Menadione Assay. The data set is classed as functional. As to conditions: H37Ra ATCC 25177, 40 min, read-out: GI.
The next data set deals with Candida albicans. Kind of data set: Antifungal activity against Candida albicans NCIM 3471 after 48 hrs by agar cup plate method. The note with it: NCIM 3471, 48 h. Type of data set: functional.
The test system of data set [5] is Mycobacterium bovis BCG str. ATCC 35743. Briefly: Antitubercular activity against dormant Mycobacterium bovis BCG ATCC 35743 at 30 ug/ml incubated for 40 mins by XTT Reduction Menadione Assay. Type of data set: functional.
In a further data set the test system is Aspergillus niger. Briefly: Antifungal activity against Aspergillus niger NCIM 1196 after 48 hrs by agar cup plate method. Type of data set: functional. As to conditions: NCIM 1196, 48 h.
Another data set deals with Cryptococcus neoformans. Briefly: Antifungal activity against Cryptococcus neoformans NCIM 576 after 48 hrs by agar cup plate method. The data set is classed as functional. As to conditions: NCIM 576, 48 h.
Data set [6] is described as follows: Antitubercular activity against Mycobacterium bovis BCG ATCC 35743 incubated for 40 mins by XTT Reduction Menadione Assay. As to conditions: Mycobacterium tuberculosis variant bovis BCG, ATCC 35743, 40 min. Type of data set: functional, Mycobacterium bovis BCG str. ATCC 35743.
The subject of data set [7] is Mycobacterium bovis BCG str. ATCC 35743. Kind of data set: Antitubercular activity against dormant Mycobacterium bovis BCG ATCC 35743 at 10 ug/ml incubated for 40 mins by XTT Reduction Menadione Assay. Type of data set: functional.
For data set [8], the system named is Mycobacterium tuberculosis. Kind of data set: Antitubercular activity against Mycobacterium tuberculosis H37Ra ATCC 25177 incubated for 40 mins by XTT Reduction Menadione Assay. The data set is classed as functional. The note with it: H37Ra ATCC 25177, 40 min.
The next data set has as its system A549. Kind of data set: (§1) Cytotoxicity against human A549 cells after 48 hrs by MTT assay. Type of data set: cell-based. The note with it: a549, 48 h.
A short description of data set [9]: as §1. Type of data set: cell-based. As to conditions: A549 cells.
Data set [10] has as its system Mycobacterium tuberculosis. Kind of data set: Antitubercular activity against dormant Mycobacterium tuberculosis H37Ra ATCC 25177 incubated for 40 mins by XTT Reduction Menadione Assay. The data set is classed as functional. The note with it: H37Ra ATCC 25177, 40 min.
Data set [11] can be described thus: Cytotoxicity against human PANC1 cells after 48 hrs by MTT assay. The data set is classed as cell-based, PANC-1. The note with it: for GI50 at 48 h: PANC1 cells; for GI90: panc-1, 48 h.
The nature of data set [12]: Cytotoxicity against human THP1 cells after 48 hrs by MTT assay. The data set is classed as cell-based, THP-1. The note with it: for GI50 at 48 h: THP1 cells; for GI90: thp-1, 48 h.
Another data set relates to HeLa. Kind of data set: (§2) Cytotoxicity against human HeLa cells after 48 hrs by MTT assay. Type of data set: cell-based. As to conditions: hela, 48 h.
Data set [13] is described as follows: as §2. The data set is classed as cell-based. The note with it: HeLa cells.
Data set [14] relates to Mycobacterium tuberculosis. Briefly: Antitubercular activity against active Mycobacterium tuberculosis H37Ra ATCC 25177 incubated for 40 mins by XTT Reduction Menadione Assay. Type of data set: functional. The note with it: H37Ra ATCC 25177, 40 min.
In the next data set the test system is Staphylococcus aureus. Kind of data set: Antibacterial activity against Staphylococcus aureus after 18 hrs by broth dilution method. The data set is classed as functional.
In a further data set the test system is Escherichia coli. Briefly: Antibacterial activity against Escherichia coli after 18 hrs by broth dilution method. Type of data set: functional.
The test system of the next data set is Bacillus subtilis. Briefly: Antibacterial activity against Bacillus subtilis after 18 hrs by broth dilution method. Type of data set: functional.
A further data set has as its system Pseudomonas fluorescens. Kind of data set: Antibacterial activity against Pseudomonas fluorescens after 18 hrs by broth dilution method. Type of data set: functional.

Consider `O=C(O)CCN1C(=O)/C(=C/c2cc3ccccc3n3nnnc23)SC1=S`, for which the growth inhibition (GI) in [1] came out at 18.8%; in data set [5] it was 47.9%; in [7], 21.6%. In addition, the MIC against Fusarium oxysporum stood at 125 µg/mL (≈ 324 µM); in the data set on Aspergillus flavus, 150 µg/mL (≈ 389 µM); in the data set on Candida albicans it was 100 µg/mL (≈ 259 µM); in the data set on Aspergillus niger, 150 µg/mL (≈ 389 µM); in the data set with Cryptococcus neoformans it was 175 µg/mL (≈ 454 µM); in data set [6], 182 µg/mL (≈ 473 µM). For the same compound, in data set [8], the MIC stood at 174 µg/mL (≈ 451 µM). In addition, the inhibition of growth at 10 µg/mL in [2] stood at 17.7%. The inhibition of growth at 30 µg/mL in [3] is 48.9%. Also, the inhibition of growth at 3 µg/mL in data set [4] was -1.77%.

On to `Cc1ccc2c(c1)cc(/C=C1\SC(=S)N(CC(=O)O)C1=O)c1nnnn12`, for which the growth inhibition (GI) in data set [1] was 20.2%; in data set [5], -14.8%; in data set [7], 35.3%. Moreover, the GI90 (in the data set with A549; in data set [11]; in data set [12]; with HeLa) was greater than 100 µg/mL in each case. Also, the GI50 at 48 h in data set [9], in data set [11], in data set [12] and in data set [13] was greater than 100 µg/mL in each case. The IC90 in data set [10] is 88.1 µg/mL (≈ 229 µM); in data set [14], 49.2 µg/mL (≈ 128 µM). For the same compound, the MIC is 100 µg/mL (≈ 259 µM) against Fusarium oxysporum; 50 µg/mL (≈ 130 µM) against Aspergillus flavus; 25 µg/mL (≈ 64.9 µM) in the data set with Candida albicans; 150 µg/mL (≈ 389 µM) in the data set on Aspergillus niger; 100 µg/mL (≈ 259 µM) against Cryptococcus neoformans; 84.4 µg/mL (≈ 219 µM) in data set [6]. In data set [8], this compound returned an MIC of 88.1 µg/mL (≈ 229 µM). Moreover, in [2], the inhibition of growth at 10 µg/mL was 16.3%. Moreover, the inhibition of growth at 30 µg/mL in data set [3] was 36.7%. For the same compound, in [4], the inhibition of growth at 3 µg/mL was determined as 17.5%.

Turning to `NC[C@H]1O[C@H](O[C@H]2[C@H](O)[C@@H](O[C@H]3O[C@H](CO)[C@@H](O)[C@H](N)[C@H]3O)[C@H](N)C[C@@H]2N)[C@H](O)[C@@H](O)[C@@H]1O` [KANAMYCIN], the MIC is greater than 30 µg/mL against Staphylococcus aureus, 1.62 µg/mL (≈ 3.34 µM) in the data set with Escherichia coli, 1.35 µg/mL (≈ 2.79 µM) in the data set with Bacillus subtilis and 0.49 µg/mL (≈ 1.01 µM) in the data set with Pseudomonas fluorescens.

Consider `CC(=O)O[C@H]1C(=O)[C@@]2(C)[C@H]([C@H](OC(=O)c3ccccc3)[C@]3(O)C[C@H](OC(=O)[C@H](O)[C@@H](NC(=O)c4ccccc4)c4ccccc4)C(C)=C1C3(C)C)[C@]1(OC(C)=O)CO[C@@H]1C[C@@H]2O` [PACLITAXEL], for which the GI90 in the data set on A549 is 0.038 µg/mL (≈ 0.0445 µM); in data set [11] it was 5.715 µg/mL (≈ 6.69 µM); in data set [12] it was 5.814 µg/mL (≈ 6.81 µM); in the data set with HeLa it was 0.075 µg/mL (≈ 0.0878 µM). Also, the GI50 at 48 h is less than 0.004 µg/mL in [9], 0.128 µg/mL (≈ 0.15 µM) in [11], 0.137 µg/mL (≈ 0.161 µM) in data set [12] and 0.0048 µg/mL (≈ 0.00562 µM) in data set [13].

As to `O=C(O)CN1C(=O)/C(=C/c2cc3ccccc3n3nnnc23)SC1=S`, the growth inhibition (GI) in [1] was -52.6%; in data set [5] it was -12.2%; in data set [7] it was -28.9%. Further, the MIC against Fusarium oxysporum was 50 µg/mL (≈ 135 µM); against Aspergillus flavus, 125 µg/mL (≈ 337 µM); against Staphylococcus aureus, 151 µg/mL (≈ 408 µM); against Candida albicans it was 50 µg/mL (≈ 135 µM); in the data set on Escherichia coli, 178 µg/mL (≈ 480 µM); with Bacillus subtilis, 124 µg/mL (≈ 333 µM). Besides, the MIC against Aspergillus niger was 125 µg/mL (≈ 337 µM); in the data set on Cryptococcus neoformans, 150 µg/mL (≈ 404 µM); in data set [6] it was greater than 250 µg/mL; with Pseudomonas fluorescens it was 182 µg/mL (≈ 489 µM); in data set [8] it was greater than 250 µg/mL. In [2], the inhibition of growth at 10 µg/mL was -2.04%. In data set [3], the inhibition of growth at 30 µg/mL is 1.49%. Further, the inhibition of growth at 3 µg/mL in data set [4] was found to be 12.2%.

On to `COc1ccc2cc(/C=C3\SC(=S)N(CCC(=O)O)C3=O)c3nnnn3c2c1`, for which the growth inhibition (GI) in data set [1] was 18.8%; in [5], 19%; in data set [7], 20.5%. Besides, the MIC against Fusarium oxysporum was 150 µg/mL (≈ 361 µM); against Aspergillus flavus, 125 µg/mL (≈ 301 µM); against Candida albicans, 100 µg/mL (≈ 241 µM); against Aspergillus niger, 50 µg/mL (≈ 120 µM); against Cryptococcus neoformans, 150 µg/mL (≈ 361 µM); in data set [6], greater than 250 µg/mL. The MIC in data set [8] was greater than 250 µg/mL. Besides, the inhibition of growth at 10 µg/mL in data set [2] came to 21.7%. Further, the inhibition of growth at 30 µg/mL in [3] is 12.5%. Also, in [4], the inhibition of growth at 3 µg/mL came out at 0.02%.

For `COc1ccc2c(c1)cc(/C=C1\SC(=S)N(CC(=O)O)C1=O)c1nnnn12`, the growth inhibition (GI) in [1] was -9.36%; in data set [5], 49.8%; in data set [7], 32.1%. Further, the MIC is 100 µg/mL (≈ 249 µM) in the data set with Fusarium oxysporum; 150 µg/mL (≈ 374 µM) in the data set on Aspergillus flavus; 50 µg/mL (≈ 125 µM) with Candida albicans; 50 µg/mL (≈ 125 µM) against Aspergillus niger; 150 µg/mL (≈ 374 µM) in the data set on Cryptococcus neoformans; greater than 250 µg/mL in data set [6]. Besides, in [8], the MIC is greater than 250 µg/mL. Besides, the inhibition of growth at 10 µg/mL in [2] was 0.62%. In addition, the inhibition of growth at 30 µg/mL in [3] was 38%. The inhibition of growth at 3 µg/mL in [4] worked out at 7.3%.
